The compounds below were run against T1, recombinant human CCR5 receptor (Homo sapiens, UniProt P51681) (assay: Radioligand binding assay for inhibition of the binding of MIP-1α). Details: displacement of 0.1 nM iodinated MIP-1α; membranes of Chinese hamster ovary cells expressing CCR5.
T1 construct: expressed in transfected cells; host or cells: Chinese hamster ovary (CHO) cells; membranes
Protocol: Biological Assay for the Ability of Compounds to Inhibit the Binding of MIP-1α This ability is assessed using an in vitro radioligand binding assay. Membranes are prepared from Chinese hamster ovary cells which express the recombinant human CCR5 receptor. These membranes are incubated with 0.1 nM iodinated MIP-1α, scintillation proximity beads and various concentrations of the compounds of the invention in 96-well plates. The amount of iodinated MIP-1α bound to the receptor is then determined by scintillation counting.

T1 sequence (P51681 whole entry): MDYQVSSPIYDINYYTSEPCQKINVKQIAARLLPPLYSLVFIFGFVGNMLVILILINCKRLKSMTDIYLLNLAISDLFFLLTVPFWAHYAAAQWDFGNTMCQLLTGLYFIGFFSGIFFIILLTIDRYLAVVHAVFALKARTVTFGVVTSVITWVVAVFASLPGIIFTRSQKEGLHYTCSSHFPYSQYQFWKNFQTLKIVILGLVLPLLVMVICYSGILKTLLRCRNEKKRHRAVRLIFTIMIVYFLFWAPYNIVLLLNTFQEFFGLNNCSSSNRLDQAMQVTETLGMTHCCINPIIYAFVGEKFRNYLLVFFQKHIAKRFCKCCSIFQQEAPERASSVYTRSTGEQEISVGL

Row | IC50 | Structure (SMILES)
1 | < 10 µM | CCN1CCN[C@@H](C(=O)N2CCN(C(=O)Nc3ccc(Cl)cc3)CC2)C1 [Example 131, N-(4-Chlorophenyl)-4-{[(2R)-4-ethylpiperazin-2-yl]carbonyl}piperazine-1-carboxamide]
2 | < 10 µM | CCN1CCN[C@@H](C(=O)N2CCN(C(=O)Nc3cccc(Cl)c3)CC2)C1 [Example 132, N-(3-Chlorophenyl)-4-{[(2R)-4-ethylpiperazin-2-yl]carbonyl}piperazine-1-carboxamide]
3 | < 10 µM | CCN1CCN[C@@H](C(=O)N2CCN(C(=O)Nc3ccc(Cl)c(Cl)c3)CC2)C1 [Example 133, N-(3,4-Dichlorophenyl)-4-{[(2R)-4-ethylpiperazin-2-yl]carbonyl}piperazine-1-carboxamide]
4 | < 10 µM | CC(C)N1CCN[C@@H](C(=O)N2CCN(C(=O)Nc3ccc(Cl)c(Cl)c3)CC2)C1 [Example 134, N-(3,4-dichlorophenyl)-4-{[(2R)-4-isopropylpiperazin-2-yl]carbonyl}piperazine-1-carboxamide]
5 | < 10 µM | O=C(Nc1ccc(Cl)c(Cl)c1)N1CCN(C(=O)[C@H]2CN(C3CC3)CCN2)CC1 [Example 135, 4-[(2R)(4-Cyclopropylpiperazin-2-yl)carbonyl]-N-(3,4-dichlorophenyl)piperazine-1-carboxamide]
6 | < 10 µM | O=C(Nc1ccc(Cl)c(Cl)c1)N1CCN(C(=O)[C@H]2CN(CCc3ccccc3)CCN2)CC1 [Example 138, N-(3,4-Dichlorophenyl)-4-{[(2R)-4-(2-phenylethyl)piperazin-2-yl]carbonyl}piperazine-1-carboxamide]
7 | < 10 µM | O=C(Nc1ccc(Cl)c(Cl)c1)N1CCN(C[C@@H]2CCCN(C3CCC(O)CC3)C2)CC1 (stereo partly drawn) [Example 145, N-(3,4-dichlorophenyl)-4-{[(3S)-1-(4-hydroxycyclohexyl)piperidin-3-yl]methyl}piperazine-1-carboxamide]
8 | < 10 µM | O=C(Nc1ccc(Cl)c(Cl)c1)N1CCN(C(=O)C2CCN([C@H]3CC[C@](O)(c4ccccn4)CC3)C2)CC1 (stereo partly shown) [Example 146, N-(3,4-dichlorophenyl)-4-{[1-(4-hydroxy-4-pyridin-2-ylcyclohexyl)pyrrolidin-3-yl]carbonyl}piperazine-1-carboxamide]
9 | < 10 µM | O=C(Nc1ccc(Cl)c(Cl)c1)N1CCN(C(=O)C2CCN([C@H]3CC[C@](O)(c4ccncc4)CC3)C2)CC1 (stereo partly drawn) [Example 147, N-(3,4-dichlorophenyl)-4-{[1-(cis-4-hydroxy-4-pyridin-4-ylcyclohexyl)pyrrolidin-3-yl]carbonyl}piperazine-1-carboxamide]
10 | < 10 µM | O=C(Nc1ccc(Cl)c(Cl)c1)N1CCN(C(=O)C2CCN(C3CCC(O)(c4nccs4)CC3)C2)CC1 (stereo not drawn) [Example 148, N-(3,4-dichlorophenyl)-4-({1-[cis-4-hydroxy-4-(1,3-thiazol-2-yl)cyclohexyl]pyrrolidin-3-yl}carbonyl)piperazine-1-carboxamide]
11 | < 10 µM | O=C(Nc1ccc(Cl)c(Cl)c1)N1CCN(CC2CCN([C@H]3CC[C@](O)(c4ccncc4)CC3)C2)CC1 (stereo partly shown) [Example 150, N-(3,4-dichlorophenyl)-4-{[1-(4-hydroxy-4-pyridin-4-ylcyclohexyl)pyrrolidin-3-yl]methyl}piperazine-1-carboxamide]
12 | < 10 µM | O=C(Nc1ccc(Cl)c(Cl)c1)N1CCN(C[C@@H]2CCCN(CC(c3ccccc3)c3ccccc3)C2)CC1 [Example 153, N-(3,4-Dichlorophenyl)-4-{[(3R)-1-(2,2-diphenylethyl)piperidin-3-yl]methyl}piperazine-1-carboxamide]
13 | < 10 µM | O=C(Nc1ccc(Cl)c(Cl)c1)N1CCN(C[C@@H]2CCCN(CCc3ccc(Cl)cc3)C2)CC1 [Example 154, 4-({(3R)-1-[2-(4-Chlorophenyl)ethyl]piperidin-3-yl}methyl)-N-(3,4-dichlorophenyl)piperazine-1-carboxamide]
14 | < 10 µM | O=C(Nc1ccc(Cl)c(Cl)c1)N1CCN(C[C@@H]2CCCN(C3Cc4ccccc4C3)C2)CC1 [Example 161, N-(3,4-dichlorophenyl)-4-{[(3S)-1-(2,3-dihydro-1H-inden-2-yl)piperidin-3-yl]methyl}piperazine-1-carboxamide]
15 | < 10 µM | N#Cc1ccc(OCCN2CCC[C@@H](CN3CCN(C(=O)Nc4ccc(Cl)c(Cl)c4)CC3)C2)cc1 [Example 170, 4-({(3S)-1-[2-(4-Cyanophenoxy)ethyl]piperidin-3-yl}methyl)-N-(3,4-dichlorophenyl)piperazine-1-carboxamide]
16 | < 10 µM | O=C(Nc1ccc(Cl)c(Cl)c1)N1CCN(C[C@@H]2CCCN(CCOc3ccc(F)cc3)C2)CC1 [Example 171, N-(3,4-Dichlorophenyl)-4-({(3S)-1-[2-(4-fluorophenoxy)ethyl]piperidin-3-yl}methyl)piperazine-1-carboxamide]
17 | < 10 µM | O=C(Nc1ccc(Cl)c(Cl)c1)N1CCN(C[C@@H]2CCCN(C3CCOCC3)C2)CC1 [Example 172, N-(3,4-Dichlorophenyl)-4-{[(3S)-1-(tetrahydro-2H-pyran-4-yl)piperidin-3-yl]methyl}piperazine-1-carboxamide]

Row | IC50 | Structure (SMILES)
18 | < 10 µM | CC(=O)N1CCC(N2CCC[C@@H](CN3CCN(C(=O)Nc4ccc(Cl)c(Cl)c4)CC3)C2)CC1 [Example 175, 4-{[(3S)-1′-Acetyl-1,4′-bipiperidin-3-yl]methyl}-N-(3,4-dichlorophenyl)piperazine-1-carboxamide]
19 | < 10 µM | CS(=O)(=O)N1CCC(N2CCC[C@@H](CN3CCN(C(=O)Nc4ccc(Cl)c(Cl)c4)CC3)C2)CC1 [Example 176, N-(3,4-Dichlorophenyl)-4-{[(3S)-1′-(methylsulfonyl)-1,4′-bipiperidin-3-yl]methyl}piperazine-1-carboxamide]
20 | < 10 µM | O=C(Nc1cccc(Cl)c1)N1CCN(C[C@@H]2CCCN(CCc3ccccc3)C2)CC1 [Example 180, N-(3-chlorophenyl)-4-{[(3R)-1-(2-phenylethyl)piperidin-3-yl]methyl} piperazine-1-carboxamide]
21 | < 10 µM | O=C(Nc1ccc(Cl)cc1)N1CCN(C[C@@H]2CCCN(CCc3ccccc3)C2)CC1 [Example 181, N-(4-chlorophenyl)-4-{[(3R)-1-(2-phenylethyl)piperidin-3-yl]methyl} piperazine-1-carboxamide]
22 | < 10 µM | O=C(Nc1ccc(Cl)c(C(F)(F)F)c1)N1CCN(C[C@@H]2CCCN(C3CC3)C2)CC1 [Example 186, N-[4-chloro-3-(trifluoromethyl)phenyl]-4-{[(3S)-1-cyclopropylpiperidin-3-yl]methyl}piperazine-1-carboxamide]
23 | < 10 µM | Cc1ccc(NC(=O)N2CCN(C[C@H]3CN(C(C)C)CCO3)CC2)cc1Cl [Example 187, N-(3-chloro-4-methylphenyl)-4-{[(2S)-4-isopropylmorpholin-2-yl]methyl}piperazine-1-carboxamide]
24 | < 10 µM | CC(C)N1CCO[C@@H](CN2CCN(C(=O)Nc3cccs3)CC2)C1 [Example 188, 4-{[(2S)-4-isopropylmorpholin-2-yl]methyl}-N-2-thienylpiperazine-1-carboxamide]
25 | < 10 µM | CC(C)N1CCO[C@@H](CN2CCN(C(=O)Nc3ccc(C(F)(F)F)nc3)CC2)C1 [Example 192, 4-{[(2S)-4-isopropylmorpholin-2-yl]methyl}-N-[6-(trifluoromethyl)pyridin-3-yl]piperazine-1-carboxamide]
26 | < 10 µM | Cc1nn(C)cc1CN1CCC[C@@H](CN2CCN(C(=O)Nc3ccc(Cl)c(Cl)c3)CC2)C1 [Example 197, N-(3,4-Dichlorophenyl)-4-({(3R)-1-[(1,3-dimethyl-1H-pyrazol-4-yl)methyl]piperidin-3-yl}methyl)piperazine-1-carboxamide]
27 | < 10 µM | O=C(Nc1ccc(Cl)c(Cl)c1)N1CCN(C[C@@H]2CCCN(Cc3c[nH]nc3-c3cccs3)C2)CC1 [Example 199, N-(3,4-Dichlorophenyl)-4-[((3R)-1-{[3-(2-thienyl)-1H-pyrazol-4-yl]methyl}piperidin-3-yl)methyl]piperazine-1-carboxamide]
28 | < 10 µM | O=C(Nc1ccc(Cl)c(Cl)c1)N1CCN(C[C@@H]2CCCN(Cc3c[nH]nc3-c3ccccc3)C2)CC1 [Example 200, N-(3,4-Dichlorophenyl)-4-({(3R)-1-[(3-phenyl-1H-pyrazol-4-yl)methyl]piperidin-3-yl}methyl)piperazine-1-carboxamide]
29 | < 10 µM | O=C(Nc1ccc(Cl)c(Cl)c1)N1CCN(C[C@@H]2CCCN(CCC3CCOCC3)C2)CC1 [Example 203, N-(3,4-Dichlorophenyl)-4-({(3R)-1-[2-(tetrahydro-2H-pyran-4-yl)ethyl]piperidin-3-yl}methyl)piperazine-1-carboxamide]
30 | < 10 µM | O=C(Nc1ccc(Cl)c(Cl)c1)N1CCN(C[C@@H]2CCCN(CCC3CCNCC3)C2)CC1 [Example 205, N-(3,4-Dichlorophenyl)-4-{[(3R)-1-(2-piperidin-4-ylethyl)piperidin-3-yl]methyl}piperazine-1-carboxamide]
31 | < 10 µM | CN1CCN(C)C(CN2CCN(C(=O)Nc3ccc(Cl)c(Cl)c3)CC2)C1 (stereo not shown) [Example 209, 1-{[1,4-Dimethylpiperazin-3-yl]methyl}-N-(3,4-dichlorophenyl)piperazine-4-carboxamide]
32 | < 10 µM | CN1CCN[C@@H](C(=O)N2CCN(C(=O)Nc3ccc(Cl)c(Cl)c3)CC2)C1 [Example 210, N-(3,4-Dichlorophenyl)-4-{[(2R)-4-methylpiperazin-2-yl]carbonyl}piperazine-1-carboxamide]
33 | < 10 µM | CC(C)N1CCN[C@@H](C(=O)N2CCN(C(=O)Nc3cccc(Cl)c3)CC2)C1 [Example 211, N-(3-chlorophenyl)-4-{[(2R)-4-isopropylpiperazin-2-yl]carbonyl}piperazine-1-carboxamide]
34 | < 10 µM | CC(C)N1CCN[C@@H](C(=O)N2CCN(C(=O)Nc3ccc(C(F)(F)F)cc3)CC2)C1 [Example 212, 4-{[(2R)-4-isopropylpiperazin-2-yl]carbonyl}-N-[4-(trifluoromethyl)phenyl]piperazine-1-carboxamide]
